{
  "source": "EPA's ToxValDB 9.5 (doi:10.2903/j.efsa.2011.1962)",
  "key": {"Canidae": {"tested_on": "Canidae", "conditions": "subchronic; duration: 90 days; oral; Dog Other; histopathology: nonneoplastic"}, "Oryctolagus sp.": {"tested_on": "Oryctolagus sp.", "conditions": "developmental; development"}, "Lepomis macrochirus": {"tested_on": "Lepomis macrochirus", "conditions": "chronic/long-term; duration: 28 days; body weight"}, "Tagia sp.": {"tested_on": "Tagia sp.", "conditions": "acute; duration: 14 days; mortality"}, "Daphnia magna": {"tested_on": "Daphnia magna", "conditions": "chronic/long-term; duration: 21 days; reproduction"}, "Typhlodromus pyri": {"tested_on": "Typhlodromus pyri", "assay": "LR50; higher = less toxic", "conditions": "not reported; mortality"}},
  "data": [
    {"smiles": "CC(C)C(O)(c1ccc(OC(F)(F)F)cc1)c1cncnc1", "note": "(stereo unspecified) [Flurprimidol]", "values": [
      {"measurement": "NOAEL", "setting": "Canidae", "value": 1.5, "unit": "mg/kg-day"},
      {"measurement": "NOAEL", "setting": "Oryctolagus sp.", "value": 9, "unit": "mg/kg-day"},
      {"measurement": "LOAEL", "setting": "Rattus norvegicus; chronic, duration: 2 years, organ weight", "value": 1, "unit": "mg/kg-day"},
      {"measurement": "NOAEL", "setting": "Rattus norvegicus; developmental, development", "value": 10, "unit": "mg/kg-day"},
      {"measurement": "NOAEL", "setting": "Rattus norvegicus; reproduction developmental, reproduction", "value": 1.8, "unit": "mg/kg-day"},
      {"measurement": "NOEL", "setting": "Rattus norvegicus; short-term, oral, diet, body weight", "value": 1.62, "unit": "mg/kg-day"},
      {"measurement": "NOAEL", "setting": "Rattus norvegicus; subchronic, duration: 90 days, oral, organ weight", "value": 1.96, "unit": "mg/kg-day"},
      {"measurement": "NOEC", "setting": "Lepomis macrochirus", "value": 0.42, "unit": "mg/L"},
      {"measurement": "NOEC", "setting": "Tagia sp.", "value": 62.6, "unit": "mg/kg"},
      {"measurement": "NOEC", "setting": "Daphnia magna", "value": 1.7, "unit": "mg/L"},
      {"measurement": "LR50", "setting": "Typhlodromus pyri", "value": "> 29.6", "unit": "g/ha"}
    ]}
  ]
}
